Laboratory results from ChEMBL document CHEMBL1201862, “PubChem BioAssay data set” (2004).
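Results reflect a 48-hour exposure of cells in 96-well plates to compound at five concentrations. GI50 = concentration required for 50% inhibition of growth.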 The source made the active and inactive calls. Rule as the data show it: active = GI50 up to about 1.1 µM and inactive = higher.

Experiments:
Test in all cases: NCI tumour cell line growth inhibition, 48 h
786-0 = test system: 786-0
LOX IMVI = test system: LOX IMVI
KM12 = test system: KM12
OVCAR-3 = test system: OVCAR-3
M14 = test system: M14
T47D = test system: T47D
SNB-75 = test system: SNB-75
SF-539 = test system: SF-539
PC-3 = test system: PC-3
NCI-H226 = test system: NCI-H226
OVCAR-4 = test system: OVCAR-4
NCI-H522 = test system: NCI-H522
MOLT-4 = test system: MOLT-4
HCC 2998 = test system: HCC 2998
RPMI-8226 = test system: RPMI-8226
HL-60 = test system: HL-60
SK-MEL-5 = test system: SK-MEL-5
UACC-257 = test system: UACC-257
UO-31 = test system: UO-31
SR = test system: SR

Nc1nc(NCc2ccccc2)cc(NCc2ccccc2)n1
GI50 (786-0): 4.92 µM (inactive)
GI50 (LOX IMVI): 4.23 µM (inactive)
GI50 (KM12): 4.28 µM (inactive)
GI50 (OVCAR-3): 3.69 µM (inactive)
GI50 (M14): 10.5 µM (inactive)
GI50 (T47D): 4.48 µM (inactive)
GI50 (SNB-75): 3.23 µM (inactive)
GI50 (SF-539): 3.45 µM (inactive)
GI50 (PC-3): 3.64 µM (inactive)
GI50 (NCI-H226): 7.5 µM (inactive)
GI50 (OVCAR-4): 9.89 µM (inactive)
GI50 (NCI-H522): 4.24 µM (inactive)
GI50 (MOLT-4): 7.18 µM (inactive)
GI50 (HCC 2998): 8.95 µM (inactive)
GI50 (RPMI-8226): 3.06 µM (inactive)
GI50 (HL-60): 37.8 µM (inactive)
GI50 (SK-MEL-5): 3.71 µM (inactive)
GI50 (UACC-257): 5.69 µM (inactive)
GI50 (UO-31): 6.31 µM (inactive)
GI50 (SR): 2.72 µM (inactive)

CC(NNC(=O)c1ccncc1)c1cccc(C(F)(F)F)c1 (stereo not given)
GI50 (786-0): > 100 µM (inactive)
GI50 (LOX IMVI): > 100 µM (inactive)
GI50 (KM12): > 100 µM (inactive)
GI50 (OVCAR-3): 0.265 µM (active)
GI50 (M14): > 100 µM (inactive)
GI50 (T47D): > 100 µM (inactive)
GI50 (SNB-75): > 100 µM (inactive)
GI50 (SF-539): > 100 µM (inactive)
GI50 (PC-3): > 100 µM (inactive)
GI50 (NCI-H226): > 100 µM (inactive)
GI50 (OVCAR-4): > 100 µM (inactive)
GI50 (NCI-H522): > 100 µM (inactive)
GI50 (MOLT-4): > 100 µM (inactive)
GI50 (HCC 2998): > 100 µM (inactive)
GI50 (RPMI-8226): > 100 µM (inactive)
GI50 (HL-60): > 100 µM (inactive)
GI50 (SK-MEL-5): > 100 µM (inactive)
GI50 (UACC-257): > 100 µM (inactive)
GI50 (UO-31): > 100 µM (inactive)
GI50 (SR): > 100 µM (inactive)

O=S(=O)(c1ccc(/N=C2\NC(c3ccc(O)cc3)(c3ccccc3O)c3ccccc32)cc1)c1ccc(/N=C2/NC(c3ccc(O)cc3)(c3ccccc3O)c3ccccc32)cc1 (stereo not given)
GI50 (786-0): 3.02 µM (inactive)
GI50 (LOX IMVI): 2.96 µM (inactive)
GI50 (KM12): 2.48 µM (inactive)
GI50 (OVCAR-3): 4.74 µM (inactive)
GI50 (M14): 3.87 µM (inactive)
GI50 (T47D): 2.25 µM (inactive)
GI50 (SNB-75): 3.32 µM (inactive)
GI50 (SF-539): 2.75 µM (inactive)
GI50 (PC-3): 5.05 µM (inactive)
GI50 (NCI-H226): 2.5 µM (inactive)
GI50 (OVCAR-4): 2.87 µM (inactive)
GI50 (NCI-H522): 2.02 µM (inactive)
GI50 (MOLT-4): 4.04 µM (inactive)
GI50 (HCC 2998): 4.63 µM (inactive)
GI50 (RPMI-8226): 5.22 µM (inactive)
GI50 (HL-60): 1.02 µM (active)
GI50 (SK-MEL-5): 4.46 µM (inactive)
GI50 (UACC-257): 5.02 µM (inactive)
GI50 (UO-31): 21.5 µM (inactive)
GI50 (SR): 5.38 µM (inactive)

Cc1nc2sc(C(=O)c3ccc(Cl)cc3)c(N)c2c(-c2ccccc2Cl)c1C(=O)Nc1ccccc1
GI50 (786-0): 10 µM (inactive)
GI50 (LOX IMVI): 12.2 µM (inactive)
GI50 (KM12): 18.5 µM (inactive)
GI50 (OVCAR-3): 16.4 µM (inactive)
GI50 (M14): 9.71 µM (inactive)
GI50 (T47D): 2.93 µM (inactive)
GI50 (SNB-75): 11.4 µM (inactive)
GI50 (SF-539): 14.7 µM (inactive)
GI50 (PC-3): 19 µM (inactive)
GI50 (NCI-H226): 17.7 µM (inactive)
GI50 (OVCAR-4): 16.5 µM (inactive)
GI50 (NCI-H522): 5.51 µM (inactive)
GI50 (MOLT-4): 14 µM (inactive)
GI50 (HCC 2998): 23.6 µM (inactive)
GI50 (RPMI-8226): 23.3 µM (inactive)
GI50 (HL-60): 11.2 µM (inactive)
GI50 (SK-MEL-5): 17.4 µM (inactive)
GI50 (UACC-257): 18.6 µM (inactive)
GI50 (UO-31): 17.3 µM (inactive)
GI50 (SR): 18.1 µM (inactive)

CCOC(=O)c1cc2c(C(=O)c3ccc([N+](=O)[O-])cc3)c(C(C)=O)ccc2[nH]1
GI50 (786-0): 7.36 µM (inactive)
GI50 (LOX IMVI): 99.8 µM (inactive)
GI50 (KM12): > 100 µM (inactive)
GI50 (OVCAR-3): > 100 µM (inactive)
GI50 (M14): > 100 µM (inactive)
GI50 (T47D): 29.9 µM (inactive)
GI50 (SNB-75): 11.6 µM (inactive)
GI50 (SF-539): 17.8 µM (inactive)
GI50 (PC-3): > 100 µM (inactive)
GI50 (NCI-H226): 51.4 µM (inactive)
GI50 (OVCAR-4): 5.52 µM (inactive)
GI50 (NCI-H522): 8.2 µM (inactive)
GI50 (MOLT-4): > 100 µM (inactive)
GI50 (HCC 2998): > 100 µM (inactive)
GI50 (RPMI-8226): > 100 µM (inactive)
GI50 (HL-60): > 100 µM (inactive)
GI50 (SK-MEL-5): 16.6 µM (inactive)
GI50 (UACC-257): > 100 µM (inactive)
GI50 (UO-31): > 100 µM (inactive)
GI50 (SR): > 100 µM (inactive)

c1ccc2c(c1)Nc1ccccc1[P+]21c2ccccc2Nc2ccccc21
GI50 (786-0): 0.401 µM (active)
GI50 (LOX IMVI): 0.587 µM (active)
GI50 (KM12): 0.0845 µM (active)
GI50 (OVCAR-3): 0.195 µM (active)
GI50 (M14): 0.351 µM (active)
GI50 (T47D): 0.11 µM (active)
GI50 (SNB-75): 0.0466 µM (active)
GI50 (SF-539): 0.156 µM (active)
GI50 (PC-3): 0.169 µM (active)
GI50 (NCI-H226): 0.0964 µM (active)
GI50 (OVCAR-4): 0.447 µM (active)
GI50 (NCI-H522): 0.179 µM (active)
GI50 (MOLT-4): 0.0525 µM (active)
GI50 (HCC 2998): 0.313 µM (active)
GI50 (RPMI-8226): 0.0314 µM (active)
GI50 (HL-60): 0.251 µM (active)
GI50 (SK-MEL-5): 0.165 µM (active)
GI50 (UACC-257): 0.214 µM (active)
GI50 (UO-31): 5.46 µM (inactive)
GI50 (SR): 0.238 µM (active)

CC(=O)c1c2n(n(-c3ccccc3)c1=O)C(=O)c1nccnc1-2
GI50 (786-0): > 100 µM (inactive)
GI50 (LOX IMVI): > 100 µM (inactive)
GI50 (KM12): > 100 µM (inactive)
GI50 (OVCAR-3): > 100 µM (inactive)
GI50 (M14): > 100 µM (inactive)
GI50 (T47D): > 100 µM (inactive)
GI50 (SNB-75): 54.1 µM (inactive)
GI50 (SF-539): > 100 µM (inactive)
GI50 (PC-3): > 100 µM (inactive)
GI50 (NCI-H226): > 100 µM (inactive)
GI50 (OVCAR-4): > 100 µM (inactive)
GI50 (NCI-H522): > 100 µM (inactive)
GI50 (MOLT-4): > 100 µM (inactive)
GI50 (HCC 2998): > 100 µM (inactive)
GI50 (RPMI-8226): > 100 µM (inactive)
GI50 (HL-60): > 100 µM (inactive)
GI50 (SK-MEL-5): > 100 µM (inactive)
GI50 (UACC-257): > 100 µM (inactive)
GI50 (UO-31): > 100 µM (inactive)
GI50 (SR): > 100 µM (inactive)
